Laboratory results: PubChem BioAssay (NCI)
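All cell lines were grown in 96-well plates and treated with compound for 48 hours. Here, GI50 denotes the concentration required for 50% inhibition of growth. At the TGI there is no net growth.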

Legend:
Experiment in all cases: NCI tumour cell line growth inhibition, 48 h
HCC-2998 colon = tested on: HCC-2998 colon
SF-539 CNS = tested on: SF-539 CNS
HT29 colon = tested on: HT29 colon
SK-MEL-2 melanoma = tested on: SK-MEL-2 melanoma
KM12 colon = tested on: KM12 colon
PC-3 prostate = tested on: PC-3 prostate
SF-268 CNS = tested on: SF-268 CNS
OVCAR-4 ovarian = tested on: OVCAR-4 ovarian
T-47D breast = tested on: T-47D breast
NCI-H460 lung = tested on: NCI-H460 lung
DU-145 prostate = tested on: DU-145 prostate
SNB-75 CNS = tested on: SNB-75 CNS
NCI/ADR-RES ovarian = tested on: NCI/ADR-RES ovarian

Row | Compound | TGI (HCC-2998 colon) [µM] | TGI (SF-539 CNS) [µM] | TGI (HT29 colon) [µM] | TGI (SK-MEL-2 melanoma) [µM] | TGI (KM12 colon) [µM] | TGI (PC-3 prostate) [µM] | TGI (SF-268 CNS) [µM] | TGI (OVCAR-4 ovarian) [µM] | TGI (T-47D breast) [µM] | TGI (NCI-H460 lung) [µM] | TGI (DU-145 prostate) [µM] | TGI (SNB-75 CNS) [µM] | TGI (NCI/ADR-RES ovarian) [µM] | GI50 (HT29 colon) [µM]
1 | O=C1C=CC[C@H](/C=C/C[C@@H](O)C[C@H](O)/C=C/c2ccccc2)O1 | 18.6 | 21.5 | 23.5 | 26.3 | 24.7 | 27.8 | 37.7 | 28.4 | 33.3 | 35.3 | 26.3 | 26.4 | 65.3 | 
2 | CC1(C)CCCCCC(C)(CCCCCCCCCCCO)C1=O (stereo not drawn) | 39.9 | 30.9 | 24.1 | 30.4 | 32.7 | 30 | 30.2 | 28.8 | 29.8 | 31.9 | 31.8 | 29.9 | 27 | 
3 | O=C1OC2c3ccccc3C(=O)C2(c2ccccc2)N1c1ccccc1 (stereo not drawn) | > 200 | > 200 | > 200 | > 200 | > 200 | > 200 | > 200 | > 200 | > 200 | > 200 | > 200 | > 200 | > 200 | 
4 | O=C1N(CN2CCOCC2)CN(CN2CCOCC2)C(=O)N1Cc1ccccc1 | > 100 | 38.9 | 39.9 | 32.2 | 57.4 | > 100 | 53.1 | > 100 | 77.1 | > 100 | 63.9 | 72.5 | 61.7 | 
5 | N#CC(C#N)=Cc1ccc(C=C2SC3=C(SCCS3)S2)s1 | > 100 | 28.1 | > 100 | > 100 | > 100 | > 100 | > 100 | > 100 | > 100 | > 100 | > 100 | 94 | 42.8 | 
6 | CC(=O)O[C@H]1[C@H](OC(C)=O)[C@@H](CN=[N+]=[N-])OCO[C@@H]1CN=[N+]=[N-] | > 100 | > 100 | > 100 | > 100 | > 100 | > 100 | > 100 | > 100 | > 100 | > 100 | > 100 | > 100 | > 100 | 
7 | COc1cc(C2c3[nH]c4ccc(F)cc4c3C[C@H]3COC(=O)N23)cc(OC)c1O (stereo partly drawn) | 28.4 | 11.4 | 26.8 | 60.3 | 26.3 | > 100 | 64.5 | 79.7 | > 100 | 19.8 | 39.2 | 8.84 | > 100 | 
8 | CC(=O)N1C(C(=O)NNc2ccccc2)CSC1c1ccccc1 (stereo not drawn) | > 100 | > 100 | > 100 | > 100 | > 100 | > 100 | > 100 | > 100 | > 100 | > 100 | > 100 | > 100 | > 100 | 
9 | COc1ccc(-c2oc3cc(OC)c(OC)c(OC)c3c(=O)c2OC)cc1OC | > 100 | > 100 | > 100 | > 100 | > 100 | > 100 | > 100 | > 100 | > 100 | > 100 | > 100 | > 100 | > 100 | 
10 | c1ccc(/N=N\Nc2ccc(-c3nc4ccccc4o3)cc2)nc1 | 55.4 | > 100 | > 100 | > 100 | > 100 | > 100 | > 100 | > 100 | 87.1 | > 100 | > 100 | 85.8 | > 100 | 
11 | C=CCOC(=O)CCCCCCCCCCCCCCCOC(=O)c1c(CCC[C@@H](C)O[Si](C)(C)C(C)(C)C)nc(=O)n2c1CC[C@H]2CC1(CC/C=C\[C@H](CC)O[Si](C(C)C)(C(C)C)C(C)C)OCCO1 | > 100 | > 100 |  | > 100 | > 100 | > 100 | > 100 | > 100 | > 100 | > 100 | > 100 | > 100 | > 100 | 
12 | Cc1cc(C)nc(NS(=O)(=O)c2ccc(NNC(=O)c3cccc4c(NNc5ccc(S(=O)(=O)Nc6nc(C)cc(C)n6)cc5)c5ccccc5nc34)cc2)n1 | 37.7 | 43.6 | 37.8 | 57.5 | 35.6 | 51 | 61 | 68 | 78.9 | 51.1 | 36.8 | 52.3 | > 100 | 
13 | CC(=O)[O-].[Ni].c1ccc(/C(=N\Nc2ccccn2)c2ccccn2)cc1 | 19.8 | 24.7 | 23.8 | 24.9 | 23.1 | 19.9 | 30.1 | > 59.7 | 15.6 | 28 | 25.1 | 46.1 | 25.9 | 0.056
14 | c1cc2cc(c1)CN1CCNCCN(CCNCC1)Cc1cccc(c1)CN1CCNCCN(CCNCC1)C2 | > 100 | > 100 | > 100 | > 100 | > 100 | > 100 | > 100 | > 100 | > 100 | > 100 | > 100 | > 100 | > 100 | 
15 | CC(=O)N1CC[N+](C)(CCCCN2c3ccccc3Sc3cc(N=[N+]=[N-])ccc32)CC1 | > 100 | > 100 | > 100 | > 100 | > 100 | > 100 | > 100 | > 100 | > 100 | > 100 | > 100 | > 100 | > 100 | 
16 | BrCCC[P+](c1ccccc1)(c1ccccc1)c1ccccc1 | > 100 | > 100 | > 100 | 82.2 | 58.1 | > 100 | > 100 | > 100 | 36.5 | > 100 | > 100 | 59.2 | > 100 | 
17 | COc1ccc2c[n+](C)c3c4cc(OC)c(OC)cc4ccc3c2c1 | 34.3 | 24.9 | 23.1 | 27.7 | 3.85 | 16.2 | 13.2 | 26.4 | 18.9 | 19.3 | 37.4 | 15.7 | > 100 | 
18 | NC1=NN(c2ccccc2)C2(c3ccncc3C(=O)O)C1C(N)=NN2c1ccccc1 (stereo not drawn) | > 100 | > 100 | > 100 | > 100 | > 100 | > 100 | > 100 | > 100 | > 100 | > 100 | > 100 | > 100 | > 100 | 
19 | C=C(CN(C)C)C(=O)c1cc(C)ccc1C | 29.9 | 19.2 | 29.3 | 37.8 | 38.3 | 28.2 | 68.3 | 39.4 | 15.7 | 44.6 | 22 | 43.4 | > 85.1 | 
20 | O=C(Nc1nncs1)NS(=O)(=O)n1cnc2ccccc21 | > 100 | > 100 | > 100 | > 100 | > 100 | > 100 | > 100 | > 100 | > 100 | > 100 | > 100 | > 100 | > 100 | 
21 | CC(=O)OCC1OC(n2c3c(cc(C#N)c2=S)CCCCCC3)C(OC(C)=O)C(OC(C)=O)C1OC(C)=O (stereo not drawn) | > 100 | > 100 | > 100 | > 100 | > 100 | > 100 | > 100 | > 100 | 30.4 | > 100 | > 100 | > 100 | > 100 | 
22 | COCC(=O)OC1CCn2c1nc1c2C(=O)C(C)=C(NC(C)=O)C1=N (stereo not drawn) | 27.7 | 3.87 | > 47.4 | 6.09 | 38.2 | 9.01 | 10.3 | 4.89 | 6.98 | 31 | 36.7 | 29 | 17.6 | 
23 | CC(=O)Nc1ccc(S(=O)(=O)[N-]C2C(=O)c3ccccc3C(=O)C2[n+]2ccccc2)cc1 (stereo not drawn) | 43.6 | 33.3 | > 100 | 25.3 | 27.9 | 46.1 | 35.5 | 28.9 | > 100 | 86.3 | > 100 | 30.1 | 38.8 | 
24 | O=c1c[n+](-c2ccccc2)[nH]o1 | > 100 | > 100 | > 100 | > 100 | > 100 | > 100 | > 100 | > 100 | > 100 | > 100 | > 100 | > 100 | > 100 | 
25 | CCCN1CN(c2ccccc2)C2(CCN(CCCC(=O)c3ccc(F)cc3)CC2)C1=O | 20.8 | 15.5 | 7.02 | 25 | 31 | 27.6 | 23.8 | 20.2 | 35 | 26.9 | 11.1 | 47.5 | 17.6 | 
26 | O=Cc1[nH]c(=O)[nH]c(=O)c1CCl | > 100 | > 100 | > 100 | > 100 | > 100 | > 100 | > 100 | > 100 | > 100 | 99.5 | > 100 | 75.6 | > 100 | 
